IC50 and melting point data for 16 molecules are collected here from patent US6699861B1, “Anti-quinazoline compounds” (Cancer Research Technology Limited, priority 1999, dated 2004).

“And” between values parts separate entries of the source, which are not always exact repeats. Equal values may be shown once. Read-outs that look alike come from different tables or passages of the source.

The subject of data set [1] is W1L2 human lymphoblastoid cells. In words: Growth inhibition of W1L2 cells. Type of data set: cell-based. Conditions: W1L2 suspension cells, read-out: Inhibition of Cell Growth IC50, W1L2 (B).
A further data set relates to W1L2:C1 cells. Description: Growth inhibition of W1L2:C1 cells (elevated TS). In kind it is cell-based, human. Conditions: read-out: Inhibition of Cell Growth IC50, W1L2:C1 (B). The procedure:
W1L2 human lymphoblastoid, W1L2:C1 (elevated TS; O'Connor et al, Cancer Res, 52, 1137-1143 (1992)) and L1210 mouse leukaemia cells were cultured in suspension and A2780, PXN94, 41M, HX62, SKOV3 (human ovarian carcinoma), MCF-7 (human breast carcinoma), HT29 and SW480 (human colon carcinoma) cell lines were grown as monolayers as described in Jackman et al, Cancer Res, 50, 5212-5218 (1990) and Jackman et al, Br. J. Cancer, 71, 914-924 (1995).
Growth inhibition studies with suspension cells were performed as described in Jackman et al, Cancer Res, 50, 5212-5218 (1990). Activity against the adherent cell lines was assessed by MTT assay (Twentyman et al, Br. J. Cancer, 56, 279-285 (1987)) where cells were seeded in 96-well plates at 1000-3000 cells per well, incubated overnight and then exposed to the appropriate drug concentrations for 96-120 h.

For a further data set, the system named is W1L2:R865 cell line. In words: Growth inhibition of W1L2:R865 cells (acquired resistance to CB 30865). In kind it is cell-based, human. The method, then: A cell line was raised with acquired resistance to CB 30865, denoted W1L2:R865, by stepwise selection over ˜9 months.
The generated W1L2:R865 cell line was routinely cultured in 0.03 μm CB 30865 under the same conditions as W1L2 cells, with cells being grown in the absence of CB 30865 for ˜2 weeks before an experiment.
The activity of compounds against W1L2:R865 cells was determined within parallel experiments by 72 h growth inhibition assay (Coulter counts). CB 30865 was included in every experiment as an internal control.

The next data set relates to W1L2 cells. In words: Growth inhibition of W1L2 in presence of folate metabolites (dThd/HX). Type of data set: cell-based, human. Conditions: in the presence of 10 μM thymidine (dThd) and 50 μM hypoxantine (HX), read-out: Inhibition of Cell Growth IC50, W1L2 + dThd/HX (C). The procedure:
Growth inhibition assays as described above were performed in W1L2 cells where compounds were incubated in the presence of 10 μM thymidine (dThd) and 50 μM hypoxantine (HX) (purchased from Sigma Chemical Co.).

Setting [2] is: Homo sapiens, Lymphoblastoid cell.
The mark [3] stands for this setting: Homo sapiens, 72 h growth inhibition assay (Coulter counts), read-out: Inhibition of Cell Growth IC50, W1L2:R865 (D).
Where [4] appears, read: Homo sapiens, 72 h, read-out: Inhibition of Cell Growth IC50, W1L2:R865 (D), 72 h growth inhibition assay (Coulter counts).
Setting [5] is: 72 h growth inhibition assay (Coulter counts), read-out: Inhibition of Cell Growth IC50, W1L2:R865 (D).
The mark [6] stands for this setting: read-out: Inhibition of Cell Growth IC50, W1L2:R865 (D), 72 h growth inhibition assay (Coulter counts).

With `C#CCN(c1ccc(C(=O)NCc2cccnc2)cc1)C1CCc2cc3cc(C)n(C)c(=O)c3cc21` (stereo not drawn) [CB300847, reference compound], the IC50 turned out to be 6.5 ± 1.7 nM in data set [1] (setting [2]), 2.7 nM in the data set with W1L2:C1 cells (Homo sapiens) and 2500 nM in the data set on W1L2:R865 cell line (setting [3]).
Regarding `C#CCN(Cc1cc2c(=O)n(C)c(CN3CCN(C)CC3)nc2cc1Cl)c1ccc(C(=O)NCc2cccnc2)cc1` [CB300921, 4-[N-[7-Chloro-3-methyl-2-(4-methyl-piperazin-1-yl)methyl-4-oxo-3,4-dihydroquinazolin-6-ylmethyl]-N-(prop-2-ynyl)amino]-N-(3-pyridylmethyl)benzamide], the IC50 in data set [1] (setting [2]) was 0.65 ± 0.15 nM; in the data set with W1L2:C1 cells, 0.62 nM and 0.54 nM; in the data set on W1L2:R865 cell line (setting [4]) it was above 10000 nM.
On to `C#CCN(Cc1cc2c(=O)n(C)c(CN3CCOCC3)nc2cc1Cl)c1ccc(C(=O)NCc2cccnc2)cc1` [CB300925, 4-[N-[7-Chloro-3-methyl-2-morpholinomethyl-4-oxo-3,4-dihydroquinazolin-6-ylmethyl]-N-(prop-2-ynyl)amino]-N-(3-pyridylmethyl)benzamide], for which the melting point (commonly the temperature of the solid-liquid transition) is above 145 °C. Further, the IC50 in data set [1] (setting [2]) was 2 ± 0.36 nM. For the same molecule, in the data set on W1L2:R865 cell line (setting [4]), the IC50 was found to be 19000 nM.
With `C#CCN(Cc1cc2c(=O)n(C)c(CN3CCCC3)nc2cc1Cl)c1ccc(C(=O)NCc2cccnc2)cc1` [CB300926, 4-[N-[7-Chloro-3-methyl-2-pyrrolidinomethyl-4-oxo-3,4-dihydroquinazolin-6-ylmethyl]-N-(prop-2-ynyl)amino]-N-(3-pyridylmethyl)benzamide], the IC50 in data set [1] (setting [2]) is 0.7 nM; in data set [1] it was 0.74 nM; with W1L2 cells (Homo sapiens), 0.76 nM; in the data set on W1L2:R865 cell line (setting [4]), 24000 nM.
Turning to `C#CCN(Cc1cc2c(=O)n(C)c(CN3CCN(CC)CC3)nc2cc1Cl)c1ccc(C(=O)NCc2cccnc2)cc1` [CB300927, 4-[N-[7-Chloro-3-methyl-2-(4-ethyl-piperazin-1-yl)methyl-4-oxo-3,4-dihydroquinazolin-6-ylmethyl]-N-(prop-2-ynyl)amino]-N-(3-yridylmethyl)benzamide], the IC50 in data set [1] was 0.78 nM and 0.8 nM; in the data set on W1L2 cells, 0.78 nM and 0.76 nM; in the data set on W1L2:R865 cell line (setting [5]), 22000 nM and 20000 nM.
On to `C#CCN(Cc1cc2c(=O)n(C)c(CN3CCC[C@H]3C(=O)OC)nc2cc1Cl)c1ccc(C(=O)NCc2cccnc2)cc1` [CB300928, 4-[N-[7-Chloro-3-methyl-2-(methyl-L-prolin-1-yl)methyl-4-oxo-3,4-dihydroquinazolin-6-ylmethyl]-N-(prop-2-ynyl)amino]-N-(3-pyridylmethyl)benzamide], for which the IC50 in the data set on W1L2 cells is 14 nM and 7.6 nM; with W1L2:R865 cell line (setting [5]), 24000 nM and 19000 nM.
The molecule `C#CCN(Cc1cc2c(=O)n(C)c(CN3CCN(C)CC3)nc2cc1Cl)c1ccc(C(=O)NCCCn2ccnc2)cc1` [CB300929, 4-[N-[7-Chloro-3-methyl-2-(4-methyl-piperazin-1-yl)methyl-4-oxo-3,4-dihydroquinazolin-6-ylmethyl]-N-(prop-2-ynyl)amino]-N-[3-(1H-imidazol-1-yl)propyl)benzamide] showed a melting point above 115 °C. The IC50 in data set [1] (setting [2]) stood at 2.1 nM. The IC50 in data set [1] was determined as 2.2 nM. In the data set on W1L2:C1 cells (Homo sapiens), the IC50 amounted to 2.3 nM. Moreover, the IC50 in the data set with W1L2:C1 cells stood at 2.2 nM. Further, the IC50 in the data set with W1L2:R865 cell line (setting [4]) was determined as 18000 nM. Moreover, in the data set on W1L2:R865 cell line (setting [6]), the IC50 was determined as 14000 nM.
As for `C#CCN(Cc1cc2c(=O)n(C)c(CN3CCN(CCO)CC3)nc2cc1Cl)c1ccc(C(=O)NCc2cccnc2)cc1` [CB300930, 4-[N-[7-Chloro-3-methyl-2-(4-(2-hydroxyethyl)-piperazin-1-yl)methyl-4-oxo-3,4-dihydroquinazolin-6-ylmethyl]-N-(prop-2-ynyl)amino]-N-(3-pyridylmethyl)benzamide], the melting point was in the range of 115 to 117 °C. For the same molecule, the IC50 in the data set on W1L2:R865 cell line (setting [4]) stood at 22000 nM. For the same molecule, the IC50 in the data set on W1L2:R865 cell line (setting [6]) turned out to be 19000 nM.
`C#CCN(Cc1cc2c(=O)n(CC(=O)OC)c(CN3CCCCC3)nc2cc1Cl)c1ccc(C(=O)NCc2cccnc2)cc1` [CB300931, 4-[N-[7-Chloro-3-methoxycarbonylmethyl-4-oxo-2-piperidin-1-ylmethyl-3,4-dihydroquinazolin-6-ylmethyl]-N-(prop-2-ynyl)amino]-N-(3-pyridylmethyl)benzamide] had a melting point of 214 to 216 °C. Moreover, the IC50 in data set [1] (setting [2]) worked out at 11 nM. Moreover, the IC50 with W1L2:C1 cells (Homo sapiens) is 9.6 nM. Besides, the IC50 in the data set with W1L2:R865 cell line (setting [4]) was determined as 23000 nM.
The molecule `C#CCN(Cc1cc2c(=O)n(CCN(C)C)c(CN3CCCCC3)nc2cc1Cl)c1ccc(C(=O)NCc2cccnc2)cc1` [CB300933, 4-[N-[7-Chloro-3-(2-dimethylaminoethyl)-4-oxo-2-piperidin-1-ylmethyl-3,4-dihydroquinazolin-6-ylmethyl]-N-(prop-2-ynyl)amino]-N-(3-pyridylmethyl)benzamide] gave a melting point of 90 to 93 °C. The IC50 in data set [1] (setting [2]) came to 2.9 nM. In the data set on W1L2:C1 cells (Homo sapiens), the IC50 is 2.8 nM. Besides, in the data set with W1L2:R865 cell line (setting [4]), the IC50 worked out at 7200 nM.
`C#CCN(Cc1cc2c(=O)n(C)c(CN3CCN(c4ccccc4)CC3)nc2cc1Cl)c1ccc(C(=O)NCc2cccnc2)cc1` [CB300934, 4-[N-[7-Chloro-3-methyl-4-oxo-2-(4-phenylpiperazin-1-yl)methyl-3,4-dihydroquinazolin-6-ylmethyl]-N-(prop-2-ynyl)amino]-N-(3-pyridylmethyl)benzamide] displayed a melting point of 214 to 216 °C. In addition, the IC50 in data set [1] (setting [2]) amounted to 7.2 nM. The IC50 in the data set on W1L2:C1 cells (Homo sapiens) was 5.4 nM. Moreover, the IC50 in the data set with W1L2:R865 cell line (setting [4]) came to 940 nM.
In turn, `C#CCN(Cc1cc2c(=O)n(CC(=O)N3CCCCC3)c(CN3CCCCC3)nc2cc1Cl)c1ccc(C(=O)NCc2cccnc2)cc1` [CB300938, 4-[N-[7-Chloro-4-oxo-2-(piperidin-1-yl)methyl-3-piperidinocarbonylmethyl-3,4-dihydroquinazolin-6-ylmethyl]-N-(prop-2-ynyl)amino]-N-(3-pyridylmethyl)benzamide] showed a melting point of 128 to 130 °C. Also, in data set [1] (setting [2]), the IC50 is 8.4 nM. Besides, the IC50 in the data set on W1L2:C1 cells (Homo sapiens) turned out to be 7.4 nM. Moreover, in the data set with W1L2:R865 cell line (setting [4]), the IC50 was above 50000 nM.
For the molecule `C#CCN(Cc1cc2c(=O)n(C)c(CN3CCC(O)CC3)nc2cc1Cl)c1ccc(C(=O)NCc2cccnc2)cc1` [CB300939, 4-[N-[7-Chloro3-methyl-2-(4-hydroxypiperidin-1-yl)methyl-4-oxo-3,4-dihydroquinazolin-6ylmethyl]-N-(prop-2-ynyl)amino]-N-(3-pyridylmethyl)benzamide], the IC50 in data set [1] (setting [2]) came out at 0.72 nM; in the data set on W1L2:C1 cells (Homo sapiens) it was 0.7 nM; with W1L2:R865 cell line (setting [4]) it was 18000 nM.
Molecule `C#CCN(Cc1cc2c(=O)n(CC(=O)N(CC)CC)c(CN3CCCCC3)nc2cc1Cl)c1ccc(C(=O)NCc2cccnc2)cc1` [CB300941, 4-[N-[7-Chloro-3-diethylcarbamoylmethyl-4-oxo-2-(piperidin-1-yl)methyl-3,4-dihydroquinazolin-6-ylmethyl]-N-(prop-2-ynyl)amino]-N-(3-pyridylmethyl)benzamide] returned a melting point above 105 °C. Also, in data set [1] (setting [2]), the IC50 is 9.4 nM. The IC50 with W1L2:C1 cells (Homo sapiens) amounted to 8.4 nM. The IC50 in the data set with W1L2:R865 cell line (setting [4]) turned out to be 19000 nM.
On to `C#CCN(Cc1cc2c(=O)n(C)c(CN3CCCCC3)nc2cc1Cl)c1ccc(C(=O)NCCCn2cncn2)cc1` [CB300942], for which the IC50 in data set [1] is above 500 nM; in the data set on W1L2:C1 cells, above 500 nM; in the data set with W1L2:R865 cell line (setting [5]), 20000 nM.
In the case of `CN(c1ccc(C(=O)NCc2cccnc2)cc1)C1CCc2cc3nc(CN4CCCCC4)n(C)c(=O)c3cc21` (stereo not drawn) [CB300943], the IC50 in data set [1] (setting [2]) is 28 nM; in the data set on W1L2:C1 cells (Homo sapiens) it was 26 nM; in the data set on W1L2:R865 cell line (setting [3]), above 500 nM.
